The text below walks through data of article PMC10528299, “Targeting FAK/PYK2 with SJP1602 for Anti-Tumor Activity in Triple-Negative Breast Cancer” (Current Issues in Molecular Biology, 2023).

Holding throughout (assay): Eurofins kinase profiling
Holding throughout (type): biochemical

The target of test [1] is T1, CDK2/cyclinA(h) (Homo sapiens, UniProt P24941).
T1 construct: purchased Eurofins KinaseProfiler
The following applies: read-out: residual kinase activity CDK2/cyclinA(h). A digest of the protocol: (§1)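 Panel of 110 assays under standard conditions; these protein kinases were tested in the radiometric KinaseProfiler assay at a single 1 µM compound concentration.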

Test [2] concerns the target T2, DNA-PK(h) (Homo sapiens, UniProt P78527).
T2 construct: purchased Eurofins KinaseProfiler
To be noted: read-out: residual kinase activity DNA-PK(h). In a few lines: as §1

Test [3] has as its target T3, Flt3(D835Y)(h) (Homo sapiens, UniProt P36888, D835Y).
T3 construct: purchased Eurofins KinaseProfiler
T3 sequence (P36888 27-993 D835Y): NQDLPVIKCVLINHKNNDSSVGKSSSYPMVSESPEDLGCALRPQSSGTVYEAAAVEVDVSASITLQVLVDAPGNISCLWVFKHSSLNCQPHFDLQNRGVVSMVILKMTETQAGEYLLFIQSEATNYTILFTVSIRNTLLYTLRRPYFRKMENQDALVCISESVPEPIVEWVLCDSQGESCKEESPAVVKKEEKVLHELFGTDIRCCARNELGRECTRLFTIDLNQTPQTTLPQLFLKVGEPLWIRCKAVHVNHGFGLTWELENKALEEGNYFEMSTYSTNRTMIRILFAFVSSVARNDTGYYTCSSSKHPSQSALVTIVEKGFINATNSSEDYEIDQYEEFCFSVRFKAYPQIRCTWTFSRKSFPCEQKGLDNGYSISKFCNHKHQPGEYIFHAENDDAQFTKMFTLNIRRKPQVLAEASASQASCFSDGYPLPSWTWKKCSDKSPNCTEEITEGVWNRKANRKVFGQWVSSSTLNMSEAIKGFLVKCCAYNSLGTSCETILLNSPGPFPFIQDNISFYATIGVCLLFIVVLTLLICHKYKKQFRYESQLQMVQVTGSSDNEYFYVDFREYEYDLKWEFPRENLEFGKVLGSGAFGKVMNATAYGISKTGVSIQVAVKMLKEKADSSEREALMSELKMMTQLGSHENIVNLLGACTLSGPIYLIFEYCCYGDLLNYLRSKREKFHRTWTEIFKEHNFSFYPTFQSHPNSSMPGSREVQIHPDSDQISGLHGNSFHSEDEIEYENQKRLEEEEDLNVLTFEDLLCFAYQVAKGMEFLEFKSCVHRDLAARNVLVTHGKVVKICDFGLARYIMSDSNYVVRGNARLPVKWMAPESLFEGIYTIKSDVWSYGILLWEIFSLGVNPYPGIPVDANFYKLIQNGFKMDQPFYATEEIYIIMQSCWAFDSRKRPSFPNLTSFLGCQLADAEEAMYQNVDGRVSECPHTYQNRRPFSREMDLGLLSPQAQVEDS
The following applies: read-out: residual kinase activity Flt3(D835Y)(h). A digest of the protocol: as §1

In test [4] the target is T4, KDR(h) (Homo sapiens, UniProt P35968).
T4 construct: purchased Eurofins KinaseProfiler
T4 sequence (P35968 20-1356): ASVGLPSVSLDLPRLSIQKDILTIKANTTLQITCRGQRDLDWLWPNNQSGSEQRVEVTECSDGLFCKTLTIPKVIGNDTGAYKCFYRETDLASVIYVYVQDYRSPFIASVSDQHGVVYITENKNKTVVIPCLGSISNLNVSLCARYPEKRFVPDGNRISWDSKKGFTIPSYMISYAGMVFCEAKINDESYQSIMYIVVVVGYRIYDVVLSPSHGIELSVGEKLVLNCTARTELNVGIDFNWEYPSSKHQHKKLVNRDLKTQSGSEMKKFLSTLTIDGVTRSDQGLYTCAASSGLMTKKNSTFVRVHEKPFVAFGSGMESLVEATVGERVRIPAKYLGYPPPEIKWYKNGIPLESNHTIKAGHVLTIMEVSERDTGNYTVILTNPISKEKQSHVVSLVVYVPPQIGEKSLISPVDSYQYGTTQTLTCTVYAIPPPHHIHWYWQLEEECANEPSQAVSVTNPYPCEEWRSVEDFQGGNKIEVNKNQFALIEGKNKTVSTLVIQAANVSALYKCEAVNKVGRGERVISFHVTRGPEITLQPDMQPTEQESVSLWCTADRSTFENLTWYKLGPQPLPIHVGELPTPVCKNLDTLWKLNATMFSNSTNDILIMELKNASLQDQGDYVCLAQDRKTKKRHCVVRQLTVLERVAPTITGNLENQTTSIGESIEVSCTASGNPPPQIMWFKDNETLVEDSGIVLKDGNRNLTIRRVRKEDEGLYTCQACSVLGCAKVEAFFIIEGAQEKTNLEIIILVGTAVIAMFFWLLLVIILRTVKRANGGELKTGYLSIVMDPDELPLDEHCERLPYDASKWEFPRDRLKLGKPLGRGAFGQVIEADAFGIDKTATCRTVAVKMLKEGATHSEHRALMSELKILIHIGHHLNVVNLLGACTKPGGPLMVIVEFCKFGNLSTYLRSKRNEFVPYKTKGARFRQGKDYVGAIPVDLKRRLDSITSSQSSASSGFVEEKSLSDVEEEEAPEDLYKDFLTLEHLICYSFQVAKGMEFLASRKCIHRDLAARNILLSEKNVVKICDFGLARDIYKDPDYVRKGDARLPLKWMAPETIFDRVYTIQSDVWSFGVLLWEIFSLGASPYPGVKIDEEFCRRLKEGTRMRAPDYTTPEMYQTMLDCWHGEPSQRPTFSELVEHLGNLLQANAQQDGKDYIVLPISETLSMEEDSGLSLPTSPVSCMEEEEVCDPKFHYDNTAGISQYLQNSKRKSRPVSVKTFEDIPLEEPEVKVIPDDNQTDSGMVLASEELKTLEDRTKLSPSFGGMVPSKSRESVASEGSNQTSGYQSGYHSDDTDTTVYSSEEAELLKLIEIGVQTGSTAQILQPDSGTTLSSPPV
To be noted: read-out: residual kinase activity KDR(h). In a few lines: as §1

In test [5] the target is T5, Lck(h) (Homo sapiens, UniProt P06239).
T5 construct: purchased Eurofins KinaseProfiler
T5 sequence (P06239 whole entry): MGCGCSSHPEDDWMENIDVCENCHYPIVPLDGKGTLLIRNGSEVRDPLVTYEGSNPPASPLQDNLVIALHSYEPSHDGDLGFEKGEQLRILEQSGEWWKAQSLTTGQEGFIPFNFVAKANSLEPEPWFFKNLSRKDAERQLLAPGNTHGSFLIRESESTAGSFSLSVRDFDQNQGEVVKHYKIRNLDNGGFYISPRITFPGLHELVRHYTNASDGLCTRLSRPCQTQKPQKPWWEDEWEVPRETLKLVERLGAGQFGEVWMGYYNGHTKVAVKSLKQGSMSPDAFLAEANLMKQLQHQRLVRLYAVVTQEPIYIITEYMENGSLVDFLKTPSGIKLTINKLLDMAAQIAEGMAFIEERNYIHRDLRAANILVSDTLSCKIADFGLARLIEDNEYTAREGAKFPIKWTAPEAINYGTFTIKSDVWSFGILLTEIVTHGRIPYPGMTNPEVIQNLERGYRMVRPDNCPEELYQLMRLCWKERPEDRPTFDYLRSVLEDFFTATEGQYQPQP
The following applies: read-out: residual kinase activity Lck(h). A digest of the protocol: as §1

Test [6] has as its target T6, PKC μ(h) (Homo sapiens, UniProt Q15139).
T6 construct: purchased Eurofins KinaseProfiler
T6 sequence (Q15139 1-912): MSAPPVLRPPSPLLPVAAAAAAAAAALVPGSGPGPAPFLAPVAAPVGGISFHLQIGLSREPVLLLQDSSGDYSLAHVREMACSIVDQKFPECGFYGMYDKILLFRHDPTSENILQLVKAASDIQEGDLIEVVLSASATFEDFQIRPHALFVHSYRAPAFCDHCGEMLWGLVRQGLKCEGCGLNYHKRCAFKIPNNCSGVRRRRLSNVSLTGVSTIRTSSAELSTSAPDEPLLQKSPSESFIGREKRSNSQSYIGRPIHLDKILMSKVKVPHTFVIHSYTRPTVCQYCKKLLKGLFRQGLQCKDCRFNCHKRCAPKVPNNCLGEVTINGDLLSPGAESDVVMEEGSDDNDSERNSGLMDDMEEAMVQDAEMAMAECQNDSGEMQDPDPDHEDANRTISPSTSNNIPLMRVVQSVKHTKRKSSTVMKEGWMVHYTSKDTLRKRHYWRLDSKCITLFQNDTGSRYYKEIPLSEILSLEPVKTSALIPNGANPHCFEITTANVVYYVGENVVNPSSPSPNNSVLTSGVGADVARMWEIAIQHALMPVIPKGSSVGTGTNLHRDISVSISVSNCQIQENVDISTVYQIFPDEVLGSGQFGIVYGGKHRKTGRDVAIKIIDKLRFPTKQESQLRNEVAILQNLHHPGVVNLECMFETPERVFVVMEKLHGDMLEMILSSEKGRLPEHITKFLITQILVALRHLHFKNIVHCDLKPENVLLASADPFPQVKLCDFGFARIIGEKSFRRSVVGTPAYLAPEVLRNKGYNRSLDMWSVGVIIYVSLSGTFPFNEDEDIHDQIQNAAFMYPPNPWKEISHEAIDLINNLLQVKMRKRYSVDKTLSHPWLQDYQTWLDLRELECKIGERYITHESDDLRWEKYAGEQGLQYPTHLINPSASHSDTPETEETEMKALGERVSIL
The following applies: read-out: residual kinase activity PKC μ(h). A digest of the protocol:
as §1

For `CONC(=O)c1ccccc1Nc1cc(Nc2cc(C)nn2C(C)C)ncc1Cl` [GSK2256098], the remaining activity at 1 µM in test [1] is 94%; in test [2] it was 98%; in test [3] it was 76%; in test [4] it was 88%; in test [5] it was 110%; in test [6], 109%.
In the case of `CNC(=O)c1cccc(C)c1Nc1nc(Nc2ccc(N3CCN(C4C5CC6CC4CC(O)(C6)C5)CC3)cc2OC)ncc1C(F)(F)F` (stereo not drawn) [SJP1602, 2-((2-((4-(4-((2s,5r)-5-hydroxyadamantan-2-yl)piperazin-1-yl)-2-methoxyphenyl)amino)-5-(trifluoromethyl)pyrimidin-4-yl)amino)-N,3-dimethylbenzamide], the remaining activity at 1 µM in test [1] was determined as 85%; in test [2], 98%; in test [3], 87%; in test [4], 101%; in test [5] it was 63%; in test [6], 113%.
On to `CNC(=O)c1ccc(Nc2ncc(C(F)(F)F)c(NCc3nccnc3N(C)S(C)(=O)=O)n2)cc1` [VS-6063, Defactinib], for which the remaining activity at 1 µM in test [1] came to 28%; in test [2], 85%; in test [3] it was 7%; in test [4] it was 28%; in test [5] it was 30%; in test [6] it was 100%.
